Measured values as given in patent US20070128596A1, “Reagents and methods for identifying and modulating expression of tumor senescence genes” (priority 2002, published 2007).

Assays:
Type in all cases: cell-based, human
[1] = tested on: HCT116 colon carcinoma cells; assay: FACS analysis of cell division by PKH2 fluorescence after doxorubicin treatment; conditions: 200 nM doxorubicin 24 hr
Procedure: (§1) HCT116 colon carcinoma cells (Myohanen et al., 1998, Cancer Res. 58: 591-593; Accession No. CCL-247, American Type Culture Collection, Manassas, Va.), including wild-type, p21−/− (clone 80S4) and p53−/− (clone 379.2) cell lines (a gift of Dr. B. Vogelstein, Johns Hopkins University) were grown in Dulbecco Modified Eagle Medium with 10% FC2 serum. Cells were plated at 5×10^6 cells per 15-cm plate and treated for 24-hr with 200 nM doxorubicin. Thereafter, cells were allowed to recover in drug-free media up to 10 days. For fluorescence-activated cell sorter (FACS) analysis of cell division, cells were labeled with PKH2 (a lipophilic fluorophore; Sigma Chemical Co., St. Louis, Mo.), which stably incorporates into the plasma membrane and distributes evenly between daughter cells, resulting in gradual decrease in PKH2 fluorescence during consequent cell divisions (Horan et al., 1989, Nature 340: 167-168). FACS analysis and cell sorting carried out as described in Chang et al. (1999, Cancer Res. 59: 3761-3767 and 1999, Oncogene 18: 4808-4818). Sorted fractions of senescent (pKH2^hi) and proliferating (PKH2^lo) cells (90-95% purity) were analyzed for DNA content using propidium iodide (PI) staining and FACS analysis as described by Jordan et al. (1996, Cancer Res. 56: 816-825). […]
Changes in PKH2 fluorescence were monitored by FACS on different days after doxorubicin treatment. […]

[2] = tested on: HCT116 colon carcinoma cells; assay: DNA content analysis by propidium iodide staining and FACS; conditions: PKH2hi fraction after 200 nM doxorubicin 24 hr
Procedure: as §1

[3] = tested on: HCT116 colon carcinoma cells; assay: Senescence-associated β-galactosidase (SA-β-gal) staining; conditions: PKH2hi fraction after 200 nM doxorubicin 24 hr
Procedure: as §1

[4] = tested on: HCT116 colon carcinoma cells; assay: Clonogenicity of sorted populations (colony formation); conditions: PKH2hi fraction separated after doxorubicin treatment
Procedure: as §1

p21 = assay: Immunoblotting of p53 and p21 in wild type, p21−/− and p53−/− HCT116 cell lines treated with doxorubicin; conditions: wild type vs p53−/− and p21−/− HCT116
Procedure: (§2) In these experiments, poly(A)^+ RNA and protein extracts were prepared from PKH2^lo and PKH2^hi cell populations, separated in different experiments 6, 9 or 10 days after release from doxorubicin. Fluorescent cDNA probes were synthesized and used for hybridization with the Human UniGEM V 2.0 cDNA microarray and signal analysis (assays were conducted by IncyteGenomics, St. Louis, Mo., as described at that company's web site, www.incyte.com). Changes in gene expression were verified by semi-quantitative reverse transcription-PCR (RT-PCR), essentially as described (Noonan et al., 1990, Proc. Natl. Acad. Sci. USA 87: 7160-7164), using β-actin as an internal normalization standard and the oligonucleotide primers shown in Table 3. RT-PCR analysis was carried out using two pairs of proliferating- and senescent-cell RNA preparations isolated in independent experiments, with the same results; for a subset of the genes, the assays were reproduced with the same pair of RNA samples. […] Bands were detected using horseradish peroxidase-labeled secondary antibodies and ECL chemiluminescence detection kit (Amersham Pharmacia Biotech, Piscataway, N.J.).

[5] = tested on: senescence-associated genes in HCT116 cells; assay: RT-PCR of senescence-associated gene expression in wild type, p21−/− and p53−/− HCT116 cells upon doxorubicin treatment
Procedure: as §2
To elucidate the roles of p53 and p21 in the observed changes in gene expression, expression of senescence-associated genes upon doxorubicin treatment of wild type, p21−/− and p53−/− HCT116 cells was analyzed. RNA samples were isolated before the addition of the drug, immediately after one-day treatment with doxorubicin, and on three consecutive days after the removal of the drug.

Maspin = assay: Immunoblotting of protein products of senescence-associated genes in doxorubicin-treated HCT116 cells
Procedure: as §2

COc1cccc2c1C(=O)c1c(O)c3c(c(O)c1C2=O)C[C@@](O)(C(=O)CO)C[C@@H]3O[C@H]1C[C@H](N)[C@H](O)[C@H](C)O1 [doxorubicin] was tested, and the “day on which a proliferating cell population (PKH2lo) emerged” value ([1]; days after treatment) was 4 days, the “growth arrest of PI-negative cells (PKH2 fluorescence)” value ([1]; first 2-3 days after treatment) was “remained growth-arrested” and the “cell cycle phase of PKH2hi cells (DNA content)” value [2] was “remained in G2”. For the same molecule, the “SA-β-gal staining of PKH2hi cells” value [3] was “stained positively for SA-β-gal”, the “colony formation by PKH2hi cells” value [4] was “have lost their proliferative capacity” and the “p21 protein induction, dependence on p53” value (p21) was “strongly dependent on p53”. For the same molecule, the “Maspin induction in p53−/− cells” value ([5]; p53−/− HCT116) was “still readily detectable in p53−/− cells”, the “BTG2 induction in p53−/− cells” value ([5]; p53−/− vs wild type HCT116) was “inducible by doxorubicin in p53−/− cells, albeit to a lesser degree than in the wild type cells” and the “EPLIN induction in the unsorted cells” value ([5]; unsorted HCT116 cells, compared with the other growth-inhibitory genes) was “weakest induction”. The “Amphiregulin induction, dependence on p53” value ([5]; wild type vs p53−/− HCT116) was “only moderate dependence on p53”, the “BTG1 induction, dependence on p53” value ([5]; wild type vs p53−/− HCT116) was “independent of p53” and the “IGFBP-6 induction, dependence on p53” value ([5]; wild type vs p53−/− HCT116) was “no dependence on p53”. For the same molecule, the “MIC-1 induction, dependence on p53” value ([5]; wild type vs p53−/− HCT116) was “only weak dependence on p53” and the “Maspin induction at the protein level” value (Maspin) was “very strong induction”.
